Results as given in PubChem BioAssay AID248 (DTP/NCI, 2004).
Several values for one entry are separate records, joined by “and”; a condition that tells them apart may be missing. Equal values may be shown once. Inconclusive results and toxic doses are left out. Rule as the data show it: active = T/C of 150% or more; inactive = T/C below 125%. Square brackets hold non-standard residues; d marks the D form. Peptide text beside a SMILES is read from it. * marks the point of attachment. ξ: configuration not given here. Pentanoyl = CCCCC(=O)*; ξP = O=C(O)C1CCCN1; OtBu = CC(C)(C)O*

System: L1210 leukemia ip in BDF1 mice, survival T/C
Experiment: NCI In Vivo Anticancer Drug Screen. Data for tumor model L1210 Leukemia (intraperitoneal) in B6D2F1 (BDF1) mice
Settings: endpoint: mean survival time, higher = longer survival
How it was run: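 In this screen, tumor-bearing mice given compound are compared to those given vehicle, and their survival values are reported as a treated-to-control quotient.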

[1] = dose: 100.0 mg/kg/injection, schedule: Q01DX009 (ip), vehicle: Klucel (hydroxypropylcellulose) (HPC)
[2] = dose: 200.0 mg/kg/injection, schedule: Q01DX009 (ip), vehicle: Klucel (hydroxypropylcellulose) (HPC)
[3] = dose: 100.0 mg/kg/injection, schedule: Q04DX002 (ip), vehicle: Klucel (hydroxypropylcellulose) (HPC)
[4] = dose: 200.0 mg/kg/injection, schedule: Q04DX002 (ip), vehicle: Klucel (hydroxypropylcellulose) (HPC)
[5] = dose: 25.0 mg/kg/injection, schedule: Q01DX009 (ip), vehicle: saline with Tween-80
[6] = dose: 50.0 mg/kg/injection, schedule: Q01DX009 (ip), vehicle: saline with Tween-80
[7] = dose: 100.0 mg/kg/injection, schedule: Q01DX009 (ip), vehicle: saline with Tween-80
[8] = dose: 100.0 mg/kg/injection, schedule: Q04DX002 (ip), vehicle: saline
[9] = dose: 200.0 mg/kg/injection, schedule: Q04DX002 (ip), vehicle: saline
[10] = dose: 400.0 mg/kg/injection, schedule: Q04DX002 (ip), vehicle: saline
[11] = dose: 100.0 mg/kg/injection, schedule: Q04DX003 (ip), vehicle: saline with Tween-80
[12] = dose: 200.0 mg/kg/injection, schedule: Q04DX003 (ip), vehicle: saline with Tween-80
[13] = dose: 400.0 mg/kg/injection, schedule: Q04DX003 (ip), vehicle: saline with Tween-80
[14] = dose: 100.0 mg/kg/injection, schedule: Q01DX009 (ip), vehicle: saline
[15] = dose: 200.0 mg/kg/injection, schedule: Q01DX009 (ip), vehicle: saline

Measured: T/C

CC(C)(Cc1ccccc1)NC(=O)N(CCCl)N=O
active: dose: 62.0 mg/kg/injection, schedule: Q01DX001 (ip), vehicle: other 151 % of control | dose: 250.0 mg/kg/injection, schedule: Q01DX001 (ip), vehicle: other 194 % of control | dose: 375.0 mg/kg/injection, schedule: Q01DX001 (ip), vehicle: other 244 % of control | dose: 500.0 mg/kg/injection, schedule: Q01DX001 (ip), vehicle: other 273 % of control | dose: 750.0 mg/kg/injection, schedule: Q01DX001 (ip), vehicle: other 263 % of control
inactive: dose: 31.0 mg/kg/injection, schedule: Q01DX001 (ip), vehicle: other 124 % of control | dose: 1000.0 mg/kg/injection, schedule: Q01DX001 (ip), vehicle: other 111 % of control

N#[N+]c1nc2ncnc(N)c2[nH]1
inactive: dose: 12.5 mg/kg/injection, schedule: Q01DX Z (ip), vehicle: saline 107 % of control | dose: 25.0 mg/kg/injection, schedule: Q01DX Z (ip), vehicle: saline 114 % of control

O=C(Nc1ccc(O)cc1)c1ccc([N+](=O)[O-])cc1
inactive: [1] 94 % of control | [2] 95 % of control | dose: 400.0 mg/kg/injection, schedule: Q01DX009 (ip), vehicle: Klucel (hydroxypropylcellulose) (HPC) 100 % of control

Nc1nc(N)nc(COc2ccccc2Cl)n1
inactive: [3] 119 % of control | [4] 90 % of control

CCOC(=O)CSc1nc2nc(Cl)c(Cl)nc2[nH]1
inactive: [5] 104 % of control | [6] 98 % of control | [7] 105 % of control | dose: 200.0 mg/kg/injection, schedule: Q01DX009 (ip), vehicle: saline with Tween-80 96 % of control

Cc1ccc(S(=O)(=O)N(CCCc2c(C)nc(N)nc2N)c2ccccc2)cc1
inactive: [8] 110 % of control | [9] 104 % of control | [10] 91 % of control

O=C(Nc1ccc(Cl)c(Cl)c1)O/N=C/c1ccccn1
inactive: [6] 96 % of control | [7] 91 % of control and 92 % of control | [11] 95 % of control | [12] 90 % of control | dose: 400.0 mg/kg/injection, schedule: Q01DX009 (ip), vehicle: saline with Tween-80 91 % of control | [13] 91 % of control

Cc1cc(C)c(O)c(C)c1.[Hg]
inactive: dose: 12.5 mg/kg/injection, schedule: Q01DX001 (ip), vehicle: Klucel (hydroxypropylcellulose) (HPC) 87 % of control

O=P(CCO)(c1ccccc1)c1ccccc1
inactive: [11] 112 % of control | [12] 101 % of control

CCCCC(=O)NCC(=O)N1CCCC1C(=O)OC(C)(C)C (stereo not given) (Pentanoyl-Gly-[ξP]-OtBu)
inactive: [3] 105 % of control | [4] 101 % of control | dose: 400.0 mg/kg/injection, schedule: Q04DX002 (ip), vehicle: Klucel (hydroxypropylcellulose) (HPC) 101 % of control

C=CCOCCN1CCN(CCCN2c3ccccc3Sc3ccc(C(F)(F)F)cc32)CC1
inactive: dose: 0.23 mg/kg/injection, schedule: Q01DX009 (ip), vehicle: saline 93 % of control | dose: 0.35 mg/kg/injection, schedule: Q01DX009 (ip), vehicle: saline 86 % of control | dose: 0.54 mg/kg/injection, schedule: Q01DX009 (ip), vehicle: saline 98 % of control | dose: 1.09 mg/kg/injection, schedule: Q01DX009 (ip), vehicle: saline 111 % of control | dose: 2.18 mg/kg/injection, schedule: Q01DX009 (ip), vehicle: saline 86 % of control | dose: 6.25 mg/kg/injection, schedule: Q04DX003 (ip), vehicle: saline 101 % of control | dose: 12.5 mg/kg/injection, schedule: Q04DX003 (ip), vehicle: saline 110 % of control | dose: 16.0 mg/kg/injection, schedule: Q01DX003 (ip), vehicle: saline 117 % of control | dose: 17.0 mg/kg/injection, schedule: Q04DX003 (ip), vehicle: saline 101 % of control | dose: 25.0 mg/kg/injection, schedule: Q01DX003 (ip), vehicle: saline 108 % of control | dose: 25.0 mg/kg/injection, schedule: Q04DX003 (ip), vehicle: saline 106 % of control

CN(C)CCC(c1ccccc1)(c1ccccc1)c1ccccc1
inactive: dose: 50.0 mg/kg/injection, schedule: Q01DX001 (ip), vehicle: carboxymethylcellulose (CMC) 92 % of control | dose: 100.0 mg/kg/injection, schedule: Q01DX001 (ip), vehicle: carboxymethylcellulose (CMC) 92 % of control | dose: 200.0 mg/kg/injection, schedule: Q01DX001 (ip), vehicle: carboxymethylcellulose (CMC) 94 % of control

C/C=C/C(=O)Nc1cc(C(F)(F)F)ccc1Cl
inactive: [5] 93 % of control and 97 % of control | [6] 97 % of control and 89 % of control | dose: 50.0 mg/kg/injection, schedule: Q04DX003 (ip), vehicle: saline with Tween-80 98 % of control | dose: 100.0 mg/kg/injection, schedule: Q01DX001 (ip), vehicle: saline with Tween-80 98 % of control | [7] 96 % of control and 90 % of control | [14] 94 % of control and 102 % of control | [8] 102 % of control and 109 % of control | [11] 98 % of control and 89 % of control | dose: 200.0 mg/kg/injection, schedule: Q01DX001 (ip), vehicle: saline with Tween-80 88 % of control | [15] 88 % of control | [9] 94 % of control and 103 % of control | [12] 109 % of control | [10] 95 % of control | [13] 95 % of control

O=C(O)CC(NC(=O)OCc1ccccc1)C(=O)O (stereo not given)
inactive: dose: 50.0 mg/kg/injection, schedule: Q01DX009 (ip), vehicle: Klucel (hydroxypropylcellulose) (HPC) 95 % of control | [1] 92 % of control | [14] 114 % of control | [2] 98 % of control | [15] 113 % of control | dose: 400.0 mg/kg/injection, schedule: Q01DX009 (ip), vehicle: saline 107 % of control

O=C(O)c1ccccc1Nc1ccccc1
inactive: dose: 100.0 mg/kg/injection, schedule: Q01DX001 (ip), vehicle: Klucel (hydroxypropylcellulose) (HPC) 102 % of control | dose: 200.0 mg/kg/injection, schedule: Q01DX001 (ip), vehicle: Klucel (hydroxypropylcellulose) (HPC) 102 % of control | dose: 400.0 mg/kg/injection, schedule: Q01DX001 (ip), vehicle: Klucel (hydroxypropylcellulose) (HPC) 97 % of control
